# Results: article PMC10179080, “In Vivo and In Vitro Characterization of Close Analogs of Compound KA-11, a New Antiseizure Drug Candidate” (International Journal of Molecular Sciences, 2023)
# Read-outs that look alike come from different tables or passages of the source.
# How the values were obtained:
# [1] = system: tonic–clonic seizures in mice; details: i.p.; cited from earlier work
# [2] = system: PTZ-induced clonic seizures in mice; details: i.p.; cited from earlier work
# [3] = system: 6-Hz-induced psychomotor seizures in mice; details: i.p.; cited from earlier work
# hepatoma HepG2 = assay: Hepatotoxicity, HepG2 cell viability; assay type: cell-based, human; details: 100× lower concentration than 100 µM
# From the text: The assays and protocols used for evaluating the KA-232 ADME-Tox parameters were similar to those described previously for compound KA-11 [6].
# Figure 9 The effect of KA-232 and the reference drug ketoconazole (KE) on CYP3A4 activity (A). The effect of KA-232 and the reference drug quinidine (QD) on CYP2D6 activity (B). The effect of KA-232 and the reference cytostatic drug doxorubicin (DX) on the HepG2 cell line (C) and the SH-SY5Y cell line (D) viability. Statistical significance (* p < 0.05, **** p < 0.0001) was analyzed by Graph Pad Prism 8 software using one-way ANOVA and Bonferroni’s Multiple Comparison Post Test.
# [4] = system: 6-Hz-induced psychomotor seizures in mice; assay: 6 Hz (32 mA) seizure model; assay type: in vivo
# Method: (§1) The experiments were conducted on adult male albino Swiss mice weighing 22–26 g. The animals were kept in colony cages under standardized laboratory conditions: natural light–dark cycle 12/12 h, temperature 20–24 °C, air humidity 45–65% and free access to tap water and food (chow pellets). After 7 days of adaptation to laboratory conditions, the animals were randomly assigned to experimental groups consisting of 8 mice. The experimental procedures described herein were approved by the Local Ethics Committee in Lublin, Poland (approval numbers: 71/2020 and 13/2021), and were conducted in accordance with EU Directive 2010/63/EU for animal experiments. All efforts were made to minimize animal suffering and to use only the number of animals necessary to produce reliable scientific data according to the 3Rs rule.
# (§2) All substances (except PTZ and tetracaine hydrochloride dissolved in water for injections) were suspended in a 1% solution of Tween 80 (Sigma-Aldrich, Saint Louis, MO, USA) in water for injections (Baxter, Warszawa, Poland) or 0.9% NaCl. All drugs were injected intraperitoneally (i.p.) 30 min before all seizure models with 1 mL syringes as a single injection, in a volume of 10 mL/kg. The pretreatment time (30 min) before testing for KA-228 and KA-232 was chosen based on the time to peak of maximum anticonvulsant activity of KA-11 from our previous studies.
# The 6-Hz-induced psychomotor seizures in mice were evoked by current (6 Hz, 0.2 ms rectangular pulse width, 32 mA, 3 s duration) generated by an S48 Square Pulse Stimulator and CCU1 Constant Current Unit (Grass Technologies, West Warwick, RI, USA). The animals were administered with increasing doses of KA-228 and KA-232, and the anticonvulsant activity of each drug was evaluated as the ED50. This experimental procedure has been described in detail in our previous studies.
# (§3) The ED50 or TD50 values for tested substances in the acute animal models of seizures were calculated using the computer log-probit analysis. Subsequently, the ED50 and TD50 values (±SEM) were statistically analyzed using one-way analysis of variance (ANOVA) followed by the post hoc Dunnett’s test for multiple comparisons. Differences among values were considered statistically significant if p < 0.05. GraphPad Prism version 8 for Windows (GraphPad Software, San Diego, CA, USA) was used as a statistical software program. The results obtained from the acute ivPTZ test and grip strength test were evaluated by a Student’s t test. Fisher’s exact probability test was used to analyze protection from tonic forelimb and hindlimb extension in the ivPTZ test.
# [5] = system: PTZ-induced clonic seizures in mice; assay: scPTZ-induced convulsions; assay type: in vivo; details: i.p.
# Method: as §1, §2
# The PTZ-induced clonic seizures in mice were determined after sc administration of PTZ at a dose of 100 mg/kg. The animals were administered with increasing doses of KA-228 and KA-232, and the anticonvulsant activity of each drug was evaluated as the ED50 value. This experimental procedure has been described in detail in our previous studies.
# as §3
# [6] = system: seizure susceptibility in mice; assay: Timed ivPTZ seizure threshold test; assay type: in vivo; details: 50 mg/kg i.p., 30 min before ivPTZ
# Method: as §1
# The timed ivPTZ seizure threshold test was carried out according to the method described by Socała et al.. KA-228 and KA-232 were suspended in a 1% solution of Tween 80 and administered i.p. 30 min before the test. In the experiment with KA-232, two separate control groups were used because the effects of KA-232 at a dose of 50 and 100 mg/kg were determined on different days.
# as §3
# Figure 7 Effects of KA-11, KA-228 and KA-232 on the threshold for the first myoclonic twitch (A), generalized clonus (B) and forelimb tonus (C) in the ivPTZ test in mice. KA-228 and KA-232 were administered i.p., 30 min before seizure induction. Control animals received vehicle. Data are presented as means ± SD (mg/kg PTZ; n = 9–14 animals; the n value varies between groups because some animals were excluded from the study due to unsuccessful catheterization of the vein). The statistical significance for KA-228 and KA-232 was evaluated by a Student’s t test. Data for KA-11 were used from Socała et al. and re-analyzed using one-way ANOVA followed by Dunnett’s post hoc test. * p < 0.05, ** p < 0.01, *** p < 0.001, **** p < 0.0001 vs. the vehicle-treated group (GraphPad Prism 8).
# [7] = system: Calcium Cav1.2 channels (dihydropyridine site, antagonist radioligand); assay: Radioligand binding, Cav1.2 dihydropyridine site; design: species or system rat; details: 10 µM
# Method: (§4) Dysfunction of both sodium and calcium ion channels is known to be one of the crucial reasons behind the pathogenesis of seizures. Consequently, these ion channels are molecular targets for several clinically important ASDs such as lacosamide, lamotrigine, carbamazepine, oxcarbazepine and compounds currently under preclinical and clinical studies. Thus, for KA-228 and KA-232, we tested herein their binding profile toward the aforementioned ion channels at concentrations of 10 and 100 µM (Table 3). […] Apart from in vitro studies focused on explaining the mechanism of action, KA-232 was additionally tested for its interaction with the potassium channel (hERG) which is recognized as one of the most important ‘off-targets’ responsible for harmful arrhythmogenic activity. Thus, the interaction of potential drug candidates with hERG must be excluded at an early stage of development.
# (§5) Binding studies were carried out commercially in Eurofins Laboratories (Poitiers, France or New Taipei City, Taiwan).
# [8] = system: neuromuscular strength in mice; assay: Grip strength test; assay type: in vivo; details: 50 mg/kg i.p., 30 min before test
# Method: The experiments were conducted on adult male albino Swiss mice weighing 22–26 g. The animals were kept in colony cages under standardized laboratory conditions: natural light–dark cycle 12/12 h, temperature 20–24 °C, air humidity 45–65% and free access to tap water and food (chow pellets). After 7 days of adaptation to laboratory conditions, the animals were randomly assigned to experimental groups consisting of 8 mice. The experimental procedures described herein were approved by the Local Ethics Committee in Lublin, Poland (approval numbers: 71/2020 and 13/2021), and were conducted in accordance with EU Directive 2010/63/EU for animal experiments. All efforts were made to minimize animal suffering and to use only the number of animals necessary to produce reliable scientific data according to the 3Rs rule. The grip strength test was carried out according to the methodology described by Socała et al.. Neuromuscular strength was measured just before the ivPTZ seizure threshold test to limit the number of animals used. The ED50 or TD50 values for tested substances in the acute animal models of seizures were calculated using the computer log-probit analysis. Subsequently, the ED50 and TD50 values (±SEM) were statistically analyzed using one-way analysis of variance (ANOVA) followed by the post hoc Dunnett’s test for multiple comparisons. Differences among values were considered statistically significant if p < 0.05. GraphPad Prism version 8 for Windows (GraphPad Software, San Diego, CA, USA) was used as a statistical software program. The results obtained from the acute ivPTZ test and grip strength test were evaluated by a Student’s t test. Fisher’s exact probability test was used to analyze protection from tonic forelimb and hindlimb extension in the ivPTZ test. Figure 8 Effects of KA-228 and KA-232 on neuromuscular strength in mice. KA-228 and KA-232 were administered i.p., 30 min before the test. Control animals received vehicle. […] The statistical significance was evaluated using the Student’s t test: * p < 0.05 vs. the vehicle-treated group (GraphPad Prism 8).
# [9] = system: tonic–clonic seizures in mice; assay: Maximal electroshock seizure (MES) test; assay type: in vivo
# Method: as §1, §2
# The tonic–clonic seizures in mice were evoked by an electric stimulus (an alternating current 25 mA, 50 Hz, maximum output voltage 500 V, 0.2 s) generated by a rodent shocker (Hugo Sachs Elektronik, Freiburg, Germany) and delivered via ear-clip electrodes. […] This experimental procedure has been described in detail in our previous studies.
# as §3
# Chimney test = details: male, albino Swiss, mouse, in vivo, ip, mice
# Method: as §1
# The chimney test of Boissier et al. was used to quantify the acute adverse-effect potential of KA-228 and KA-232 on motor performance in mice. […]
# The ED50 or TD50 values for tested substances in the acute animal models of seizures were calculated using the computer log-probit analysis. Subsequently, the ED50 and TD50 values (±SEM) were statistically analyzed using one-way analysis of variance (ANOVA) followed by the post hoc Dunnett’s test for multiple comparisons. […] The results obtained from the acute ivPTZ test and grip strength test were evaluated by a Student’s t test. […]
# Na^+ channel (site 2) = assay: Radioligand binding, Na+ channel (site 2); design: species or system rat
# Method: as §4, §5
compound,measurement,setting,value
"CCCC(CCC)C(=O)O [VPA, valproic acid, reference compound]",ED50 MES ± SD,[1],355.2 ± 108.1 mg/kg
same,"TI (TD50/ED50), MES",[1],1.21
same,ED50 PTZ ± SD,[2],176.2 ± 81.8 mg/kg
same,"TI (TD50/ED50), PTZ",[2],2.44
same,ED50 6 Hz ± SD,[3],110.5 ± 42.8 mg/kg
same,"TI (TD50/ED50), 6 Hz",[3],3.90
"COc1cccc2c1C(=O)c1c(O)c3c(c(O)c1C2=O)C[C@@](O)(C(=O)CO)C[C@@H]3O[C@H]1C[C@H](N)[C@H](O)[C@H](C)O1 [doxorubicin, reference compound]",HepG2 cell viability,hepatoma HepG2,21 % of control
"CC(C(=O)N1CCN(c2cccc(C(F)(F)F)c2)CC1)N1CCCC1=O (centres unmarked) [KA-228, 1-(1-oxo-1-(4-(3-(trifluoromethyl)phenyl)piperazin-1-yl)propan-2-yl)pyrrolidin-2-one]",ED50,"[4]; Mus musculus, ip, 30 min before test, read-out: ED50 6 Hz ± SD",61.8 mg/kg
same,"TI (TD50/ED50), 6 Hz",[4]; i.p.,1.72
same,ED50 6 Hz ± SD,"[4]; i.p., 30 min before test",76.4 ± 40.76 mg/kg
same,ED50,"[5]; Mus musculus, scPTZ 100 mg/kg, 30 min before test, read-out: ED50 PTZ ± SD",95.4 ± 39.8 mg/kg
same,"TI (TD50/ED50), PTZ",[5]; scPTZ,1.38
same,effect on threshold for forelimb tonus,[6],significantly raised
same,effect on threshold for generalized clonus,[6],did not cause any significant changes
same,effect on threshold for the first myoclonic twitch,[6],did not cause any significant changes
same,% Inhibition of Control Specific Binding,[7],8.7%
same,melting point,,87.1 to 88.4 °C
same,effect on neuromuscular strength (grip strength),[8],did not produce any significant effects
same,ED50,"[9]; Mus musculus, ip, 30 min before test, read-out: ED50 MES ± SD",92.5 ± 16 mg/kg
same,"TI (TD50/ED50), MES",[9]; i.p.,1.42
same,TD50 at 30 min,Chimney test,131 ± 36.2 mg/kg
same,% Inhibition of Control Specific Binding,Na^+ channel (site 2); 10 µM,−2.9%
same,% Inhibition of Control Specific Binding,Na^+ channel (site 2); 100 µM,15.5%
